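How tested: cells in 96-well plates exposed to compound for 48 hours at five concentrations. Here, GI50 denotes the concentration required for 50% inhibition of growth. TGI denotes the concentration required for complete inhibition of growth.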
Key:
Assay in all cases: NCI anticancer screen, dose series, 48 h
PC-3 prostate = system: PC-3 prostate
SN12C renal = system: SN12C renal
DU-145 prostate = system: DU-145 prostate
SR leukemia = system: SR leukemia
K-562 leukemia = system: K-562 leukemia
T-47D breast = system: T-47D breast
OVCAR-8 ovarian = system: OVCAR-8 ovarian
CAKI-1 renal = system: CAKI-1 renal
OVCAR-3 ovarian = system: OVCAR-3 ovarian
SF-295 CNS = system: SF-295 CNS

SMILES | TGI (PC-3 prostate) | TGI (SN12C renal) | TGI (DU-145 prostate) | TGI (SR leukemia) | TGI (K-562 leukemia) | TGI (T-47D breast) | TGI (OVCAR-8 ovarian) | TGI (CAKI-1 renal) | TGI (OVCAR-3 ovarian) | TGI (SF-295 CNS) | GI50 (SN12C renal) | GI50 (OVCAR-3 ovarian) | GI50 (K-562 leukemia) | GI50 (SF-295 CNS) | GI50 (OVCAR-8 ovarian) | GI50 (CAKI-1 renal)
COc1ccc(/C=C/C2=NN(c3cccc(S(=O)(=O)O)c3)C3(C2)SCC(=O)N3c2nc3ccccc3s2)cc1 (stereo not drawn) | > 100 µM | > 100 µM | > 100 µM | > 100 µM | > 100 µM | 87.1 µM | > 100 µM | > 100 µM | – | – | – | – | – | – | – | –
c1cnc(N2CCN(Cc3c[nH]c4ccccc34)CC2)nc1 | > 100 µM | > 100 µM | 94.2 µM | – | > 100 µM | 72.2 µM | > 100 µM | > 100 µM | > 100 µM | > 100 µM | – | – | – | – | – | –
C[C@H](C/C=C/C(C)(C)O)[C@H]1CC[C@@]2(C)[C@@H]3CC[C@H]4C(C)(C)[C@@H](O)CC[C@@]45C[C@@]35CC[C@]12C | 65.1 µM | 27.9 µM | 28.8 µM | – | 70.3 µM | 49.7 µM | 33.4 µM | – | > 100 µM | 30.2 µM | – | – | – | – | – | –
COc1ccc(-n2sc3ncccc3c2=O)cc1 | 53.5 µM | 91.3 µM | > 100 µM | 55.1 µM | – | 44.1 µM | 70.3 µM | – | 60.8 µM | > 100 µM | – | – | – | – | – | –
CSC1NC(c2ccc(Cl)cc2)=C(C#N)C(=O)N1C1OCC(OC(C)=O)C(OC(C)=O)C1OC(C)=O (stereo not drawn) | > 100 µM | > 100 µM | > 100 µM | > 100 µM | > 100 µM | – | > 100 µM | > 100 µM | > 100 µM | > 100 µM | – | – | – | – | – | –
CC(=O)[CH-]C(=O)c1ccccc1.CC(=O)[CH-]C(=O)c1ccccc1.C[C@]12CCC(=O)C=C1CC[C@@H]1C2CC[C@@]2(C)C1CC[C@]2(C)[O-].C[C@]12CCC(=O)C=C1CC[C@@H]1C2CC[C@@]2(C)C1CC[C@]2(C)[O-].Cl.[Ti+4] (stereo partly drawn) | – | 49.5 µM | – | – | > 100 µM | – | 77.5 µM | 38.4 µM | > 100 µM | 57.3 µM | 18.7 µM | 27.9 µM | 3.76 µM | 18.4 µM | 20.4 µM | 13.3 µM
COC(=O)c1ccc(Nc2nc3nc[nH]c3c(=O)[nH]2)cc1 | > 100 µM | > 100 µM | > 100 µM | > 100 µM | – | > 100 µM | > 100 µM | > 100 µM | > 100 µM | > 100 µM | – | – | – | – | – | –
C[C@H]1S[C@H](c2c(Cl)cccc2Cl)N2Cc3ccccc3N=C12 | 37.7 µM | > 100 µM | 27.5 µM | > 100 µM | > 100 µM | 36.4 µM | – | > 100 µM | 26.9 µM | 21.9 µM | – | – | – | – | – | –
Cc1cc(=O)[nH]c(NN2C(Cl)C(=O)C2c2cccc(Cl)c2)n1 (stereo not drawn) | – | 62 µM | – | 44.3 µM | 65.8 µM | – | > 100 µM | – | 51.1 µM | – | – | – | – | – | – | –
COC(OC)[C@@H]1OC[C@@H](O)[C@@H]1n1cnc2c(N)ncnc21 | > 100 µM | > 100 µM | > 100 µM | > 100 µM | > 100 µM | > 100 µM | – | > 100 µM | > 100 µM | > 100 µM | – | – | – | – | – | –
Nc1c(Cl)ncnc1NCCCNc1ncnc(Cl)c1N | – | > 100 µM | – | > 100 µM | > 100 µM | – | > 100 µM | > 100 µM | > 100 µM | > 100 µM | – | – | – | – | – | –
COc1cccc(/C=N/[N-]C(N)=O)c1[O-].[Cu+2].[OH3+].c1ccc(-c2ccccn2)nc1 | – | > 96.8 µM | – | > 100 µM | 66 µM | – | > 100 µM | 83.7 µM | > 100 µM | > 100 µM | – | – | – | – | – | –
O=C(NNc1ccccc1)/C(=C/c1ccc2c(c1)OCO2)NC(=O)c1ccccc1 | – | > 100 µM | – | > 100 µM | > 100 µM | – | > 100 µM | > 100 µM | > 100 µM | > 100 µM | – | – | – | – | – | –
O=C1Nc2ccccc2Nc2ccncc21 | – | > 31.6 µM | – | – | > 100 µM | – | > 100 µM | > 100 µM | > 100 µM | > 100 µM | – | – | – | – | – | –
CC(=O)NC(CC(C)C)C(=O)NC(Cc1ccccc1)C(=S)N1CCCC1 (stereo not drawn) | – | > 100 µM | – | – | > 100 µM | – | > 100 µM | > 100 µM | > 100 µM | > 100 µM | – | – | – | – | – | –
CC(C)(C)OC(=O)NCCCCC(NC(=O)c1ccccc1)C(N)=O (stereo not drawn) | > 100 µM | > 100 µM | > 100 µM | – | > 100 µM | > 100 µM | > 100 µM | > 100 µM | > 100 µM | > 100 µM | – | – | – | – | – | –
COc1ccc2oc(=O)c(-c3csc(C)n3)cc2c1 | > 100 µM | > 100 µM | > 100 µM | > 100 µM | > 100 µM | – | – | > 100 µM | – | 40 µM | – | – | – | – | – | –
O=C1C(CN2CCOCC2)CCCC1CN1CCOCC1 (stereo not drawn) | 28.9 µM | 7.71 µM | 31.1 µM | > 100 µM | 6.84 µM | – | 9.31 µM | 1.57 µM | 8.21 µM | 50.5 µM | – | – | – | – | – | –
COc1ccc(/C=N/n2cnc3[nH]c(C)c(Cc4ccccc4)c3c2=N)cc1 | > 100 µM | > 100 µM | > 100 µM | > 100 µM | – | > 100 µM | > 100 µM | > 100 µM | > 100 µM | > 100 µM | – | – | – | – | – | –
O=P(O)(O)C1(P(=O)(O)O)CC1 | – | > 100 µM | – | – | > 100 µM | – | > 100 µM | > 100 µM | > 100 µM | > 100 µM | – | – | – | – | – | –
Clc1ccc(OCc2nn3c(CCc4nnc5sc(COc6ccc(Cl)cc6)nn45)nnc3s2)cc1 | 53.1 µM | – | 44.2 µM | – | > 100 µM | > 100 µM | 35.8 µM | 12.8 µM | 65.8 µM | > 100 µM | – | – | – | – | – | –
COc1ccc(C(OCC2OC(n3ccc(NC(=O)c4ccccc4)nc3=O)CC2OP2(=S)SCCS2)(c2ccccc2)c2ccc(OC)cc2)cc1 (stereo not drawn) | 41.5 µM | 58.6 µM | > 100 µM | > 100 µM | > 100 µM | > 100 µM | 63.2 µM | – | 58.5 µM | 97.9 µM | – | – | – | – | – | –
CCOC(=O)C1=COC(C)(CCc2ccccc2)CC1=O (stereo not drawn) | > 100 µM | > 100 µM | > 100 µM | – | > 100 µM | > 100 µM | > 100 µM | > 100 µM | > 100 µM | > 100 µM | – | – | – | – | – | –
NNC(=O)c1cc(=O)[nH][nH]1 | > 100 µM | > 100 µM | > 100 µM | – | > 100 µM | > 100 µM | > 100 µM | > 100 µM | – | > 100 µM | – | – | – | – | – | –

Reference: PubChem BioAssay (NCI)
